Test results from ChEMBL document CHEMBL5038591, “Identification of a Novel TAR RNA-Binding Protein 2 Modulator with Potential Therapeutic Activity against Hepatocellular Carcinoma” (J Med Chem, 2021).
Calls of active or inactive are those of the source.

Legend:
HepG2 = experiment: Inhibition of colony formation in human HepG2 cells at 30 uM incubated for 14 days by crystal violet staining based assay; type: functional, cell-based; settings: time 14.0 day
SK-HEP1 [1] = experiment: Antiproliferative activity against human SK-HEP1 cells assessed as increase in miR-224-5p level at 20 uM by qRT-PCR analysis; type: functional, cell-based
SK-HEP1 [2] = experiment: Antiproliferative activity against human SK-HEP1 cells assessed as increase in miR-214-5p level at 20 uM by qRT-PCR analysis; type: functional, cell-based
SK-HEP1 [3] = experiment: Antiproliferative activity against human SK-HEP1 cells assessed as increase in miR-122-5p level at 20 uM by qRT-PCR analysis; type: functional, cell-based
MDA-MB-231 [4] = experiment: Inhibition of colony formation in human MDA-MB-231 cells at 30 uM incubated for 14 days by crystal violet staining based assay; type: functional, cell-based; settings: time 14.0 day
[5] = biological target: Signal transducer and activator of transcription 3 (Homo sapiens) (UniProt P40763); experiment: Inhibition of STAT3 phosphorylation in human SK-HEP1 cells at 30 uM by Western blot analysis; type: cell-based
Signal transducer and activator of transcription 3 (Homo sapiens), sequence (P40763 whole entry): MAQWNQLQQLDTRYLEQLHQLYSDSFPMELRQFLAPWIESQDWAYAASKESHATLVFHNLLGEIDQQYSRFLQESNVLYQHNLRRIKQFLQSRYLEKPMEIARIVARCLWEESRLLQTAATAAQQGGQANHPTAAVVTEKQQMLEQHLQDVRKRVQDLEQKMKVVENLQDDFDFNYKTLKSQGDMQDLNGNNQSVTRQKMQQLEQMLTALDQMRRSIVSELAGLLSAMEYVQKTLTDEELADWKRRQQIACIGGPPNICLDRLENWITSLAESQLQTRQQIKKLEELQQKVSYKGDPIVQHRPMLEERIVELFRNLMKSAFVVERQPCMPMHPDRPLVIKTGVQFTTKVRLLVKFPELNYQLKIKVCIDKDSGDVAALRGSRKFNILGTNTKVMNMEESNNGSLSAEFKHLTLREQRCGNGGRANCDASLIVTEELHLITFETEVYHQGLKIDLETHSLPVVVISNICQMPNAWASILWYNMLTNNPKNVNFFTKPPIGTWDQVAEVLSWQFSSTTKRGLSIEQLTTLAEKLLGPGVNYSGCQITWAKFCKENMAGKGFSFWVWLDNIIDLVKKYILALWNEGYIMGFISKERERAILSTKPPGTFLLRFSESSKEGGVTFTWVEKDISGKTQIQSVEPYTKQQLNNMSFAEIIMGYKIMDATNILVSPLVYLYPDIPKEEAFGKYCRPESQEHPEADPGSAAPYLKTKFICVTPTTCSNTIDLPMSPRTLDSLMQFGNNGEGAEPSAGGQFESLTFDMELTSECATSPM

MHCC97 [6] = experiment: Antitumor activity against human MHCC97 cells xenografted in SCID mouse assessed as decrease in tumor size at 20 mg/kg, ip administered once every 3 days and measured after 10 days; type: functional, organism-based; settings: time 10.0 day
HeLa [7] = experiment: Antiproliferative activity against human HeLa cells assessed as increase in miR-21 biogenesis level measured after 24 hrs by luciferase assay; type: functional, cell-based
SK-HEP1 [8] = experiment: Induction of cell cycle arrest in human SK-HEP1 cells assessed as G2 phase accumulation at 20 uM incubated for 24 hrs by propidium iodide staining based flow cytometry analysis (reference value: 24.12%); type: functional
MHCC97 [9] = experiment: Inhibition of colony formation in human MHCC97H cells at 30 uM incubated for 14 days by crystal violet staining based assay; type: functional, cell-based; settings: time 14.0 day
MHCC97 [10] = experiment: Inhibition of cell migration in human MHCC97H cells at 30 uM incubated for 12 hrs by crystal violet staining based transwell assay; type: functional
MHCC97 [11] = experiment: Antitumor activity in human MHCC97 cells xenografted in SCID mouse assessed as suppression of tumor growth at 20 mg/kg, ip administered once every 3 day for 30 days by bioluminescence analysis; type: functional, organism-based; settings: time 30.0 day
[12] = biological target: Transcription factor p65 (Homo sapiens) (UniProt Q04206); experiment: Inhibition of p65 phosphorylation in human SK-HEP1 cells at 30 uM by Western blot analysis; type: cell-based
Transcription factor p65 (Homo sapiens), sequence (Q04206 whole entry): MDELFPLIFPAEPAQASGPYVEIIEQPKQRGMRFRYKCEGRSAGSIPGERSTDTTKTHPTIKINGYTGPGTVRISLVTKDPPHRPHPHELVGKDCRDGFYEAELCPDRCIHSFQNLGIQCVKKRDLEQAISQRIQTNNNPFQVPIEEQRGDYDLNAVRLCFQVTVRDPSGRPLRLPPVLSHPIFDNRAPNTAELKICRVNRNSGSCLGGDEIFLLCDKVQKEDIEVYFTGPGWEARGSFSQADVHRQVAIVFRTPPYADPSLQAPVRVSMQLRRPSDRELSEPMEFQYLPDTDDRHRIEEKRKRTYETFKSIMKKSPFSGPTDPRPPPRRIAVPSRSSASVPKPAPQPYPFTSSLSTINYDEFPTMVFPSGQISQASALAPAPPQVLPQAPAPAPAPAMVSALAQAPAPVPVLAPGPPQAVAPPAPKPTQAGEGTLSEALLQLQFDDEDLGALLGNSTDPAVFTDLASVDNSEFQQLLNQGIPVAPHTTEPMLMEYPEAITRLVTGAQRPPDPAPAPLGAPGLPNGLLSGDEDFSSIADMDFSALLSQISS

MDA-MB-231 [13] = experiment: Antiproliferative activity against human MDA-MB-231 cells at 25 uM incubated for 24 hrs by alamar blue assay; type: functional, cell-based
MHCC97 [14] = experiment: Antimetastatic activity against human MHCC97 cells xenografted in SCID mouse assessed as decrease in liver metastasis at 20 mg/kg, ip administered once every 3 days and measured after 10 days; type: functional, organism-based; settings: time 10.0 day
SK-HEP1 [15] = experiment: Antiproliferative activity against human SK-HEP1 cells assessed as increase in miR-21-5p level at 20 uM by qRT-PCR analysis; type: functional, cell-based
Mus musculus [16] = experiment: Downregulation of CDC20 expression in mouse liver at 40 mg/kg measured after 30 days by immunohistochemical staining analysis; type: functional, organism-based; settings: time 30.0 day
Mus musculus [17] = experiment: Downregulation of KIF14 expression in mouse liver at 40 mg/kg measured after 30 days by immunohistochemical staining analysis; type: functional, organism-based; settings: time 30.0 day
SK-HEP1 [18] = experiment: Antiproliferative activity against human SK-HEP1 cells assessed as increase in miR-22-5p level at 20 uM by qRT-PCR analysis; type: functional, cell-based
[19] = Antiproliferative activity against human QSG7701 cells incubated for 24 hrs by alamar blue assay; type: functional, cell-based; settings: QSG7701, 24 h
SK-HEP1 [20] = experiment: Inhibition of colony formation in human SK-HEP1 cells at 10 to 50 uM incubated for 14 days by crystal violet staining based assay; type: functional, cell-based; settings: dose 10-50 µM, time 14.0 day
HeLa [21] = experiment: Inhibition of colony formation in human HeLa cells at 30 uM incubated for 14 days by crystal violet staining based assay; type: functional, cell-based; settings: time 14.0 day
[22] = biological target: Serine/threonine-protein kinase AKT (Homo sapiens) (UniProt P31751+Q9Y243+P31749); experiment: Inhibition of AKT phosphorylation in human SK-HEP1 cells at 30 uM by Western blot analysis; type: cell-based
Serine/threonine-protein kinase AKT (Homo sapiens), sequence (P31749 whole entry, looked up): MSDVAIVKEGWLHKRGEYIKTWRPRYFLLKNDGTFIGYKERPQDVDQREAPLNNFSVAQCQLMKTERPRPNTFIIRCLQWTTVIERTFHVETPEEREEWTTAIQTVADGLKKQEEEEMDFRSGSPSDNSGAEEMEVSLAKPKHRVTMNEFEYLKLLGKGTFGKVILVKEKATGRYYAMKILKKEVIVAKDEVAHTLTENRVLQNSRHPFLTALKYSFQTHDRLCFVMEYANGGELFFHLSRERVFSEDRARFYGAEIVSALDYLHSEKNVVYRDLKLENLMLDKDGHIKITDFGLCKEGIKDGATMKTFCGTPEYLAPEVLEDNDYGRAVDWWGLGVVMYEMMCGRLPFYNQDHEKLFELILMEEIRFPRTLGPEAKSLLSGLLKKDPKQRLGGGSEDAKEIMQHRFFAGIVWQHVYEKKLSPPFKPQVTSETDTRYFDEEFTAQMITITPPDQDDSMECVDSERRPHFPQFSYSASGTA
Serine/threonine-protein kinase AKT (Homo sapiens), sequence (P31751 whole entry, looked up): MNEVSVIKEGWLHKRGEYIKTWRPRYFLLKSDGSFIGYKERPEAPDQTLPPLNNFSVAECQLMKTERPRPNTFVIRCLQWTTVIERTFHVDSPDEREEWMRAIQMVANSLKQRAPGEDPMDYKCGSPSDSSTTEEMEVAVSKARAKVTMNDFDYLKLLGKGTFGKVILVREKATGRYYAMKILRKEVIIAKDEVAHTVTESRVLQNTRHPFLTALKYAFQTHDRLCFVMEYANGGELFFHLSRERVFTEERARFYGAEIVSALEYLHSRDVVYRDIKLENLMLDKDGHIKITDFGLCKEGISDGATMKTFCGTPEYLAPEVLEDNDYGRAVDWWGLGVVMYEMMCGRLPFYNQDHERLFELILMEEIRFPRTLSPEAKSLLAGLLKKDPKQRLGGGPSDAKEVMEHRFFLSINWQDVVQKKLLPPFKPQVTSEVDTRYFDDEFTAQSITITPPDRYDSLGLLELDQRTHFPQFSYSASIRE
Serine/threonine-protein kinase AKT (Homo sapiens), sequence (Q9Y243 whole entry, looked up): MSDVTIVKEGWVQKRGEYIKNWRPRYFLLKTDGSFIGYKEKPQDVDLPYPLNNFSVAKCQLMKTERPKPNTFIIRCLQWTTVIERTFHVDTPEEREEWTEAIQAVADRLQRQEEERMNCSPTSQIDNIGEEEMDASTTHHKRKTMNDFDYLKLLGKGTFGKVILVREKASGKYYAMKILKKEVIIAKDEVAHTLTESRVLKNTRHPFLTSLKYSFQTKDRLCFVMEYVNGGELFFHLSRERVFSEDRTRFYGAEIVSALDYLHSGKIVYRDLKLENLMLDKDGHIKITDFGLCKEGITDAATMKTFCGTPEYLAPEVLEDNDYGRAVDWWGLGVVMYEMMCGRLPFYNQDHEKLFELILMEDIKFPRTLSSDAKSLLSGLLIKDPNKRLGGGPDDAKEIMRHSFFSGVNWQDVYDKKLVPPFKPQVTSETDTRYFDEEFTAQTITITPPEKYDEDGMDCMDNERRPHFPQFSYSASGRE

SK-HEP1 [23] = experiment: Effect on Dicer protein expression in human SK-HEP1 cells at 30 uM after 24 hrs by immunoblot analysis; type: functional, cell-based
SK-HEP1 [24] = experiment: Effect on human SK-HEP1 cells assessed as decrease in miR-10b-5p level at 10 to 50 uM by qRT-PCR analysis; type: functional, cell-based; settings: dose 10-50 µM
HCT-116 [25] = experiment: Inhibition of colony formation in human HCT-116 cells at 30 uM incubated for 14 days by crystal violet staining based assay; type: functional, cell-based; settings: time 14.0 day
MHCC97 [26] = experiment: Antitumor activity in human MHCC97 cells xenografted in SCID mouse assessed as reduction in infiltration of inflammatory cells in left outer lobe of liver at 40 mg/kg, ip administered once every 3 days measured after 30 days by H and E staining based immunohistochemical analysis; type: functional, organism-based; settings: time 30.0 day
HeLa [27] = experiment: Antiproliferative activity against human HeLa cells at 25 uM incubated for 24 hrs by alamar blue assay; type: functional, cell-based
SK-HEP1 [28] = experiment: Antiproliferative activity against human SK-HEP1 cells incubated for 24 hrs by alamar blue assay; type: functional, cell-based; settings: SK-HEP1, 24 h
MHCC97 [29] = experiment: Antimetastatic activity against human MHCC97 cells xenografted in SCID mouse assessed as decrease in liver metastasis at 40 mg/kg, ip administered once every 3 days and measured after 10 days; type: functional, organism-based; settings: time 10.0 day
SK-HEP1 [30] = experiment: Inhibition of epithelial-mesenchymal transition in human SK-HEP1 cells assessed as change in vimentin expression at 10 to 50 uM incubated for 24 hrs by Western blot analysis; type: functional, cell-based; settings: dose 10-50 µM
SK-HEP1 [31] = experiment: Inhibition of cell migration in human SK-HEP1 cells overexpressing TRBP at 20 uM measured after 12 hrs using crystal violet staining inverted microscope based transwell assay; type: functional
MHCC97 [32] = experiment: Antitumor activity in human MHCC97 cells xenografted in SCID mouse assessed as suppression of tumor growth at 40 mg/kg, ip administered once every 3 day for 30 days by bioluminescence analysis; type: functional, organism-based; settings: time 30.0 day
HCT-116 [33] = experiment: Antiproliferative activity against human HCT-116 cells at 25 uM incubated for 24 hrs by alamar blue assay; type: functional, cell-based
SK-HEP1 [34] = experiment: Antiproliferative activity against human SK-HEP1 cells assessed as increase in miR-106b-5p level at 20 uM by qRT-PCR analysis; type: functional, cell-based
SK-HEP1 [35] = experiment: Antiproliferative activity against human SK-HEP1 cells assessed as increase in miR-10a-5p level at 20 uM by qRT-PCR analysis; type: functional, cell-based
Huh-7 [36] = experiment: Inhibition of colony formation in human Huh-7 cells at 30 uM incubated for 14 days by crystal violet staining based assay; type: functional, cell-based; settings: time 14.0 day
SK-HEP1 [37] = experiment: Antiproliferative activity against human SK-HEP1 cells knockdown TRBP at 20 uM measured by crystal violet dye based colony formation assay; type: functional, cell-based
MHCC97 [38] = experiment: Antitumor activity in human MHCC97 cells xenografted in SCID mouse assessed as reduction in infiltration of inflammatory cells in left middle lobe of liver at 40 mg/kg, ip measured after 30 days by H and E staining based immunohistochemical analysis; type: functional, organism-based; settings: time 30.0 day
Huh-7 [39] = experiment: Antiproliferative activity against human Huh-7 cells at 25 uM incubated for 24 hrs by alamar blue assay; type: functional, cell-based

COc1cc2c(c(O)c1OC)-c1c(cc3c(c1OC)OCO3)C[C@H](C)[C@H](C)C2
20.6 µM: IC50 (SK-HEP1 [28])
53 µM: IC50 [19]
17.2 µM: IC50 (HeLa [7])
19.68%: Activity (SK-HEP1 [8])
inactive: Activity (SK-HEP1 [1]) | inhibition [5] | Activity (MDA-MB-231 [13]) | Activity (MHCC97 [14]) | Activity (SK-HEP1 [18]) | Activity (SK-HEP1 [23]) | inhibition (SK-HEP1 [30]) | Activity (HCT-116 [33]) | Activity (SK-HEP1 [35]) | Activity (SK-HEP1 [37])
active: inhibition (HepG2) | Activity (SK-HEP1 [2]) | Activity (SK-HEP1 [3]) | inhibition (MDA-MB-231 [4]) | Activity (MHCC97 [6]) | inhibition (MHCC97 [9]) | inhibition (MHCC97 [10]) | Activity (MHCC97 [11]) | inhibition [12] | Activity (SK-HEP1 [15]) | Activity (Mus musculus [16]) | Activity (Mus musculus [17]) | inhibition (SK-HEP1 [20]) | inhibition (HeLa [21]) | inhibition [22] | Activity (SK-HEP1 [24]) | inhibition (HCT-116 [25]) | Activity (MHCC97 [26]) | Activity (HeLa [27]) | Activity (MHCC97 [29]) | inhibition (SK-HEP1 [31]) | Activity (MHCC97 [32]) | Activity (SK-HEP1 [34]) | inhibition (Huh-7 [36]) | Activity (MHCC97 [38]) | Activity (Huh-7 [39])
